From ChEMBL document CHEMBL5528039, “Discovery of a Macrocyclic Influenza Cap-Dependent Endonuclease Inhibitor” (J Med Chem, 2024)
pEC50: −log10 of the molar value.

What was measured:
[1] = AUC (0 to last) in cynomolgus monkey at 0.25 mg/kg, iv measured after 24 hrs by LC-MS/MS analysis; type: ADME, organism-based, Macaca fascicularis; conditions: in vivo
[2] = test system: HEp-2; test: Cytotoxicity against human HEp-2 cells incubated for 3 days by CellTiter-Glo assay; type: functional; conditions: HEp-2, 72 h, time 3 day
[3] = Half-life in cynomolgus monkey at 0.25 mg/kg, iv measured after 24 hrs by LC-MS/MS analysis; type: ADME, organism-based, Macaca fascicularis; conditions: in vivo
[4] = Metabolic stability in human liver microsomes assessed as intrinsic clearance at 1 uM measured upto 60 mins in presence of NADPH by LC-MS/MS analysis; type: ADME, Microsome; conditions: 1 h
[5] = test system: MOLT-4; test: Cytotoxicity against human MOLT-4 cells incubated for 3 days by CellTiter-Glo assay; type: functional; conditions: MOLT-4, 72 h, time 3 day
[6] = test system: H1-HeLa; test: Cytotoxicity against human H1-HeLa cells incubated for 3 days by CellTiter-Glo assay; type: functional; conditions: 72 h, time 3 day
[7] = Volume of distribution at steady state in Beagle dog at 0.25 mg/kg, iv measured after 24 hrs by LC-MS/MS analysis; type: ADME, organism-based, Canis lupus familiaris; conditions: in vivo, read-out: Vdss
[8] = Clearance in BALB/c mouse at 2 mg/kg, iv measured after 24 hrs by LC-MS/MS analysis; type: ADME, organism-based; conditions: in vivo
[9] = test system: Influenza B virus; test: Antiviral activity against Influenza B virus B/Lee/40 infected in MDCK cells assessed as reduction in virus-induced cytopathic effect incubated for 5 days by CCK8 based microplate spectrophotometric analysis; type: functional, organism-based; conditions: B/Lee/40, MDCK, 120 h
[10] = test system: Influenza B virus; test: Antiviral activity against Influenza B virus B/Florida/78/2015 infected in MDCK cells assessed as reduction in virus-induced cytopathic effect incubated for 5 days by CCK8 based microplate spectrophotometric analysis; type: functional, organism-based; conditions: B/Florida/78/2015, MDCK, 120 h
[11] = test system: COLO 205; test: Cytotoxicity against human COLO 205 cells incubated for 3 days by CellTiter-Glo assay; type: functional; conditions: COLO 205, 72 h, time 3 day
[12] = test system: HEK293; test: Cytotoxicity against HEK293 cells incubated for 3 days by CellTiter-Glo assay; type: functional; conditions: Homo sapiens, HEK293, 72 h; time 3 day
[13] = Half-life in BALB/c mouse at 2 mg/kg, iv measured after 24 hrs by LC-MS/MS analysis; type: ADME, organism-based; conditions: in vivo
[14] = test system: Influenza A virus; test: Antiviral activity against Influenza A virus A/California/07/2009 (H1N1) infected in MDCK cells assessed as reduction in virus-induced cytopathic effect incubated for 5 days by CCK8 based microplate spectrophotometric analysis; type: functional, organism-based; conditions: 120 h
[15] = Protein binding in cynomolgus monkey plasma assessed as unbound fraction at 400 uM incubated for 4 hrs by LC-MS/MS analysis; type: ADME, cell-free, Macaca fascicularis
[16] = test system: MRC5; test: Cytotoxicity against human MRC5 cells incubated for 3 days by CellTiter-Glo assay; type: functional; conditions: MRC5, 72 h, time 3 day
[17] = test system: CCRF-CEM; test: Cytotoxicity against human CCRF-CEM cells incubated for 3 days by CellTiter-Glo assay; type: functional; conditions: 72 h, time 3 day
[18] = Half-life in Beagle dog at 0.25 mg/kg, iv measured after 24 hrs by LC-MS/MS analysis; type: ADME, organism-based, Canis lupus familiaris; conditions: in vivo
[19] = AUC (0 to last) in BALB/c mouse at 2 mg/kg, iv measured after 24 hrs by LC-MS/MS analysis; type: ADME, organism-based; conditions: in vivo
[20] = Volume of distribution at steady state in cynomolgus monkey at 0.25 mg/kg, iv measured after 24 hrs by LC-MS/MS analysis; type: ADME, organism-based, Macaca fascicularis; conditions: in vivo, read-out: Vdss
[21] = test system: Influenza A virus; test: Antiviral activity against Influenza A virus A/PR/8/34 (H1N1) infected in MDCK cells assessed as reduction in virus-induced cytopathic effect incubated for 5 days by CCK8 based microplate spectrophotometric analysis; type: functional, organism-based; conditions: 120 h
[22] = Metabolic stability in mouse liver microsomes assessed as intrinsic clearance at 1 uM measured upto 60 mins in presence of NADPH by LC-MS/MS analysis; type: ADME, Microsome; conditions: 1 h
[23] = Selectivity index, ratio of CC50 for human MOLT-4 cells to EC50 for antiviral activity against Influenza B virus B/Lee/40 infected in MDCK cells; type: functional
[24] = test system: Influenza B virus; test: Potency index, ratio of baloxavir EC50 to test compound EC50 for antiviral activity against Influenza B virus B/Lee/40 infected in MDCK cells assessed as reduction in virus-induced cytopathic effect incubated for 5 days by CCK8 based microplate spectrophotometric analysis; type: functional; conditions: time 5 day
[25] = Protein binding in human plasma assessed as unbound fraction at 400 uM incubated for 4 hrs by LC-MS/MS analysis; type: ADME, cell-free
[26] = test system: Influenza A virus; test: Antiviral activity against Influenza A virus A/California/2/2014 (H3N2) infected in MDCK cells assessed as reduction in virus-induced cytopathic effect incubated for 5 days by CCK8 based microplate spectrophotometric analysis; type: functional, organism-based; conditions: 120 h
[27] = Inhibition of influenza A virus A/WSN/33 (H1N1) RNA polymerase transfected in HEK293T/17 cells incubated for 24 hrs by dual luciferase reporter gene assay; type: cell-based; conditions: HEK293T/17, 24 h
[28] = AUC (0 to last) in Beagle dog at 0.25 mg/kg, iv measured after 24 hrs by LC-MS/MS analysis; type: ADME, organism-based, Canis lupus familiaris; conditions: in vivo
[29] = test system: Influenza B virus; test: Potency index, ratio of baloxavir EC50 to test compound EC50 for antiviral activity against Influenza B virus B/Florida/78/2015 infected in MDCK cells assessed as reduction in virus-induced cytopathic effect incubated for 5 days by CCK8 based microplate spectrophotometric analysis; type: functional; conditions: time 5 day
[30] = Clearance in Beagle dog at 0.25 mg/kg, iv measured after 24 hrs by LC-MS/MS analysis; type: ADME, organism-based, Canis lupus familiaris; conditions: in vivo
[31] = test system: HepG2; test: Cytotoxicity against human HepG2 cells incubated for 3 days by CellTiter-Glo assay; type: functional; conditions: HepG2, 72 h, time 3 day
[32] = Protein binding in mouse plasma assessed as unbound fraction at 400 uM incubated for 4 hrs by LC-MS/MS analysis; type: ADME, cell-free
[33] = Protein binding in dog plasma assessed as unbound fraction at 400 uM incubated for 4 hrs by LC-MS/MS analysis; type: ADME, cell-free, Canis lupus familiaris
[34] = Volume of distribution at steady state in BALB/c mouse at 2 mg/kg, iv measured after 24 hrs by LC-MS/MS analysis; type: ADME, organism-based; conditions: in vivo, read-out: Vdss
[35] = Metabolic stability in cynomolgus monkey liver microsomes assessed as intrinsic clearance at 1 uM measured upto 60 mins in presence of NADPH by LC-MS/MS analysis; type: ADME, Macaca fascicularis, Microsome; conditions: 1 h
[36] = Clearance in cynomolgus monkey at 0.25 mg/kg, iv measured after 24 hrs by LC-MS/MS analysis; type: ADME, organism-based, Macaca fascicularis; conditions: in vivo
[37] = Metabolic stability in dog liver microsomes assessed as intrinsic clearance at 1 uM measured upto 60 mins in presence of NADPH by LC-MS/MS analysis; type: ADME, Canis lupus familiaris, Microsome; conditions: 1 h
[38] = test system: A-375; test: Cytotoxicity against human A-375 cells incubated for 3 days by CellTiter-Glo assay; type: functional; conditions: A-375, 72 h, time 3 day

## CN1C(=O)c2c(O)c(=O)ccn2N2[C@H](c3ccccc3)c3cc(F)c(F)cc3OCC[C@@H]12
[1]
  AUC(0-t) at 24 h: 0.458 µM·h
[2]
  CC50: 12400 nM
[3]
  half-life: 2.2 h
[4]
  CLint: < 8.6 µL/min/mg
[5]
  CC50: 4130 nM
[6]
  CC50: 9770 nM
[7]
  Vd: 3.74 L/kg
[8]
  clearance: 57.4 mL/min/kg
[9]
  pEC50: 8.07
[9]; time 5 day
  EC90: 16 nM
[10]
  pEC50: 9.05
[10]; time 5 day
  EC90: 1.6 nM
[11]
  CC50: 7040 nM
[12]
  CC50: 20300 nM
[13]
  half-life: 1.2 h
[14]
  pEC50: 8.59
[14]; time 5 day
  EC90: 4.2 nM
[15]
  fraction unbound at 4 h, 400 µM: 0.382
[16]
  CC50: 20000 nM
[17]
  CC50: 6480 nM
[18]
  half-life: 2.6 h
[19]
  AUC(0-t) at 24 h: 1.32 µM·h
[20]
  Vd: 3.68 L/kg
[21]
  pEC50: 8.14
[21]; time 5 day
  EC90: 12 nM
[22]
  CLH: 0.1106 mL/min/kg
[23]
  Ratio CC50/EC50: >485
[24]
  Ratio EC50: 3
[25]
  fraction unbound at 4 h, 400 µM: 0.103
[26]
  pEC50: 8.92
[26]; time 5 day
  EC90: 3.2 nM
[27]
  pEC50: 7.91
[28]
  AUC(0-t) at 24 h: 0.576 µM·h
[29]
  Ratio EC50: 3
[30]
  clearance: 20.8 mL/min/kg
[31]
  CC50: 5190 nM
[32]
  fraction unbound at 4 h, 400 µM: 0.122
[33]
  fraction unbound at 4 h, 400 µM: 0.218
[34]
  Vd: 4.41 L/kg
[35]
  CLH: < 0.013 mL/min/kg
[36]
  clearance: 20.8 mL/min/kg
[37]
  CLH: 0.0138 mL/min/kg
[38]
  CC50: 13300 nM
